From patent US20120122860A1, “SOLID FORMS OF SULFONAMIDES AND AMINO ACIDS” (Plexxikon, Inc., priority 2009, published 2012)

Columns and labels:
[1] = molecular target: MAP4K4 (Homo sapiens, UniProt O95819); test: Kinase activity assay, MAP4K4
[2] = molecular target: T1, A-Raf (Homo sapiens, UniProt P10398); test: Kinase activity assay, A-Raf
T1 sequence (P10398 1-606): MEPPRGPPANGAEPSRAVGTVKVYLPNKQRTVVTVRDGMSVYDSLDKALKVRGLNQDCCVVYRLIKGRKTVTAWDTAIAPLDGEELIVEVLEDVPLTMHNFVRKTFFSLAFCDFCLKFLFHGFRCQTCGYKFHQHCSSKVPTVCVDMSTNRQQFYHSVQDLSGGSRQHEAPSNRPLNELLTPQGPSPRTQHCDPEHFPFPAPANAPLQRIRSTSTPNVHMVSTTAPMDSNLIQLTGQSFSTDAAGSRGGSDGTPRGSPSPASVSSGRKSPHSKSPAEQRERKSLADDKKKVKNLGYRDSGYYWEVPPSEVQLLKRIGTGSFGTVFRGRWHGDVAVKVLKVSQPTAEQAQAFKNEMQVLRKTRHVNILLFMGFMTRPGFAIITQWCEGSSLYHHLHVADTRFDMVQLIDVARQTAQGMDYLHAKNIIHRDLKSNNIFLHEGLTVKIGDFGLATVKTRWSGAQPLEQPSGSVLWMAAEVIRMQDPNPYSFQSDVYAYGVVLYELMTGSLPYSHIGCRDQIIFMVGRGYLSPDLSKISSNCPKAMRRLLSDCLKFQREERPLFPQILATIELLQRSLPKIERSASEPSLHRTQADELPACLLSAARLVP

[3] = molecular target: Src (Homo sapiens, UniProt P12931); test: Kinase activity assay, Src
[4] = molecular target: B-Raf (Homo sapiens, UniProt P15056); test: Kinase activity assay, B-Raf; assay type: biochemical; settings: read-out: activity toward kinase B-Raf, IC50
[5] = molecular target: Kit (Homo sapiens, UniProt P10721); test: Kinase activity assay, Kit
[6] = molecular target: Kdr (Homo sapiens, UniProt P35968); test: Kinase activity assay, Kdr
[7] = molecular target: B-Raf V600E (Homo sapiens, UniProt P15056, V600E); test: Kinase activity assay, B-Raf V600E; assay type: biochemical; settings: read-out: activity toward kinase B-Raf V600E, IC50
[8] = molecular target: C-Raf (Homo sapiens, UniProt P04049); test: Kinase activity assay, C-Raf
C-Raf, sequence (P04049 whole entry): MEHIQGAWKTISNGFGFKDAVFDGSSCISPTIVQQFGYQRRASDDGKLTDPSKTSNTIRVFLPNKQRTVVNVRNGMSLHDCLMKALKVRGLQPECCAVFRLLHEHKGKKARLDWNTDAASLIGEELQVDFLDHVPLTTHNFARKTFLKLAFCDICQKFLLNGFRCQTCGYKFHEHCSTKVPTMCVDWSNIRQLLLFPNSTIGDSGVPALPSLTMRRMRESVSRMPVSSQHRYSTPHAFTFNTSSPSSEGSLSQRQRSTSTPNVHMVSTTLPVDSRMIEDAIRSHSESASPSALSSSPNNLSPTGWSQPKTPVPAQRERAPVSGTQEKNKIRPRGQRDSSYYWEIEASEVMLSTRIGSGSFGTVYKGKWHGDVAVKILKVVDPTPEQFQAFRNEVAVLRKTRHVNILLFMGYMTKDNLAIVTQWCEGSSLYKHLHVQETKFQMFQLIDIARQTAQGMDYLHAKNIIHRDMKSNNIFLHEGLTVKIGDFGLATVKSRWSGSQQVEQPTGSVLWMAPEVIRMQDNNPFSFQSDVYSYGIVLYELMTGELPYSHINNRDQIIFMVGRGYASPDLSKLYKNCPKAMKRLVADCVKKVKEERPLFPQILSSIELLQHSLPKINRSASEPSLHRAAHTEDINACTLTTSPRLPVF

B-Raf, sequence (P15056 whole entry): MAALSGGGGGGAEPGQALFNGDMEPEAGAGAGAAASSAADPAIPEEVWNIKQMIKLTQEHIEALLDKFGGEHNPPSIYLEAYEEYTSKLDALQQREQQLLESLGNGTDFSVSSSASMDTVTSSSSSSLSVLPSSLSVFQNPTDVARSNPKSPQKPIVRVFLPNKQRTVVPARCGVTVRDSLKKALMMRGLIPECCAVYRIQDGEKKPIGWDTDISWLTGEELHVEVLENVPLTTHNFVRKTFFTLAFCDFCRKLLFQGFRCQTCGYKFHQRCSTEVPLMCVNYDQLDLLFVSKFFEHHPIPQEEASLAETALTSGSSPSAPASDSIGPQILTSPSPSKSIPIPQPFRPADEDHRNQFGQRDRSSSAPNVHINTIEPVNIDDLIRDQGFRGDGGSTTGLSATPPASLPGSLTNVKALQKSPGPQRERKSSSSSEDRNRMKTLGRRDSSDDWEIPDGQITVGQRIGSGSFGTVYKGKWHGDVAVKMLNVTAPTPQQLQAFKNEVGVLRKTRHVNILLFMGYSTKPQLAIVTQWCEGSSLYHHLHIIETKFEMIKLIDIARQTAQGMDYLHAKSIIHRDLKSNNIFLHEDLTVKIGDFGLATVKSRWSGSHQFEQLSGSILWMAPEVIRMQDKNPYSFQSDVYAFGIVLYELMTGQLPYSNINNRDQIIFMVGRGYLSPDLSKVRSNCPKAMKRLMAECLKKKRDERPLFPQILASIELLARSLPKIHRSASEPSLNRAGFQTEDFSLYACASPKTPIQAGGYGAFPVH
Kdr, sequence (P35968 20-1356): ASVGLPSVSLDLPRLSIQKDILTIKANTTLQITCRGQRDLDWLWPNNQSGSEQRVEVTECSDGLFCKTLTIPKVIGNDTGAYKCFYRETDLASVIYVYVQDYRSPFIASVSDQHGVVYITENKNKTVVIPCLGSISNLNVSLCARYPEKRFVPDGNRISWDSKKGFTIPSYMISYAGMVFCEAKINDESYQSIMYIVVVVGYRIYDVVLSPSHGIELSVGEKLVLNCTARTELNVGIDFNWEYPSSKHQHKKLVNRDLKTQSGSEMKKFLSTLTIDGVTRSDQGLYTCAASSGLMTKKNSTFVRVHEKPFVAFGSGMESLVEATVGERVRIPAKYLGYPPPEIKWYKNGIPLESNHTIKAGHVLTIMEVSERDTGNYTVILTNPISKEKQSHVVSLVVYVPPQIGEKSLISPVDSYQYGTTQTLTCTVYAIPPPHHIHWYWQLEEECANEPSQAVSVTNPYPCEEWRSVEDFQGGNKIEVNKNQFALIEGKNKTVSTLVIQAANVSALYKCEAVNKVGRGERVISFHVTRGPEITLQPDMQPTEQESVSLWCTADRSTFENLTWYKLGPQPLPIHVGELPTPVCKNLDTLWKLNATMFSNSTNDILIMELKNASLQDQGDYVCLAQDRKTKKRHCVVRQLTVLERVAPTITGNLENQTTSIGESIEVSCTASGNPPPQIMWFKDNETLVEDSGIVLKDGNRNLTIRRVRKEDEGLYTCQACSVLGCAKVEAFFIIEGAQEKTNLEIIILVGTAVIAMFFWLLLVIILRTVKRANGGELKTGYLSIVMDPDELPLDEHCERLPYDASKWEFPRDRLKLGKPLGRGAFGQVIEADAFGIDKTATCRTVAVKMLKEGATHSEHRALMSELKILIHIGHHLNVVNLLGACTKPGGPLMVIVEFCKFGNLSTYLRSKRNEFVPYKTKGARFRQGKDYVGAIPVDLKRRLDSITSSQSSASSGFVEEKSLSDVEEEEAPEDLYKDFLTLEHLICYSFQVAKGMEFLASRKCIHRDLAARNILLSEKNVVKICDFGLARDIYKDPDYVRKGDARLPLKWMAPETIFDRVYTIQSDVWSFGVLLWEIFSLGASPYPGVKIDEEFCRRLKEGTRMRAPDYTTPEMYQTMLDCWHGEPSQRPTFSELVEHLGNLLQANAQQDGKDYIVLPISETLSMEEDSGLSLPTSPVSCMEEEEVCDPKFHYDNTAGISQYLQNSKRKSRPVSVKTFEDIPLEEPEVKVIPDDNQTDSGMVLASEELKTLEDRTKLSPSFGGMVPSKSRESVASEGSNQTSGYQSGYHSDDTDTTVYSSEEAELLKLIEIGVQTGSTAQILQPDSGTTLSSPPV
B-Raf V600E, sequence (P15056 whole entry V600E): as the sequence (P15056 whole entry) above, with V600E counted along it
Src, sequence (P12931 whole entry): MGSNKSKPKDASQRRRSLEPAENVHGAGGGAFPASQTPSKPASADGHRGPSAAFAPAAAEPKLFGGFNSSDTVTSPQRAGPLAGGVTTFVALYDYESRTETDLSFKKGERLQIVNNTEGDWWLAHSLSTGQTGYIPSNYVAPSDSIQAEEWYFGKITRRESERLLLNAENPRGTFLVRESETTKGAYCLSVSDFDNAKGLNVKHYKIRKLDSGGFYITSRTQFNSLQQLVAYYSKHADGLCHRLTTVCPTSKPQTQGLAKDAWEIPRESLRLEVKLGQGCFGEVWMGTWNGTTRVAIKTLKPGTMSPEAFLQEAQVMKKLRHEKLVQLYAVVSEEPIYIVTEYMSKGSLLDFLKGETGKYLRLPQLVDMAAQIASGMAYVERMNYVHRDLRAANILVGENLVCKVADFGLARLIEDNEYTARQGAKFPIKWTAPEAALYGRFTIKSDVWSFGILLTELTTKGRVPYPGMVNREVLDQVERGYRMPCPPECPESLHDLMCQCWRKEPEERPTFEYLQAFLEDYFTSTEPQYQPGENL
MAP4K4, sequence (O95819 whole entry): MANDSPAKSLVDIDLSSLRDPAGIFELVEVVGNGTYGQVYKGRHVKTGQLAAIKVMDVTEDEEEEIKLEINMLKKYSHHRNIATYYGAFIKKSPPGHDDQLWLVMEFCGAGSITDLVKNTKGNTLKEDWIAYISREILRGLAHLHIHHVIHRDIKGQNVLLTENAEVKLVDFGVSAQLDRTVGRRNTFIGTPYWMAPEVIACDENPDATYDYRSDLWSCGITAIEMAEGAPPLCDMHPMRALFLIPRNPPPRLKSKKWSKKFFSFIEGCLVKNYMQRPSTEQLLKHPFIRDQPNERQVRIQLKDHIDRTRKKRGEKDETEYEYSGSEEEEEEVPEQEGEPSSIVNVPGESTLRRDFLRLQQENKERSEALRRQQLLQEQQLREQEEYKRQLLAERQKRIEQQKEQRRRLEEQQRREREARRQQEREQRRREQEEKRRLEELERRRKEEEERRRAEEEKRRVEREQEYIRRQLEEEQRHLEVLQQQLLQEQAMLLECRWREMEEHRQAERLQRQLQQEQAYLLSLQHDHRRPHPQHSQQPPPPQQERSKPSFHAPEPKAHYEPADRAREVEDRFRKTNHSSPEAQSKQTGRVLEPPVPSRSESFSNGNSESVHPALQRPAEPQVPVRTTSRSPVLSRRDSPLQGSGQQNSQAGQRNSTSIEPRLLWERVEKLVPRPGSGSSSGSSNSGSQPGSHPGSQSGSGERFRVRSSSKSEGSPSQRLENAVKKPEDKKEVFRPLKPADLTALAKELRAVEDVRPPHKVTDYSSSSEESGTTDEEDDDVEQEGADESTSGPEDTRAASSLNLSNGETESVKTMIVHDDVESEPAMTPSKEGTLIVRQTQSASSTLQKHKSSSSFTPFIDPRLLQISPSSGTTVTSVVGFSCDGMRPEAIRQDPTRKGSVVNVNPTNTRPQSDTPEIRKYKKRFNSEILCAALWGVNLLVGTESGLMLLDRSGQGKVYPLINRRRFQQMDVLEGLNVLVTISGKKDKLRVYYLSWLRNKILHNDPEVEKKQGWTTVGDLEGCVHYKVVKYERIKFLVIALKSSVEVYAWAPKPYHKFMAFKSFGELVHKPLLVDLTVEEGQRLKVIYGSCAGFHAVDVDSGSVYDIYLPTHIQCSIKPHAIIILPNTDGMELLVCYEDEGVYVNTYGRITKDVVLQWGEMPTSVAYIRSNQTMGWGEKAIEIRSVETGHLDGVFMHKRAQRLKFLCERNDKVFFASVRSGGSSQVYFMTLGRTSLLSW

| IC50 [1] [µM] | IC50 [2] [µM] | IC50 [3] [µM] | IC50 [4] [µM] | IC50 [5] [µM] | IC50 [6] [µM] | IC50 [7] [µM] | IC50 [8] [µM] | SMILES |
| --- | --- | --- | --- | --- | --- | --- | --- | --- |
| ≤ 10 | ≤ 10 | ≤ 10 | ≤ 10 | ≤ 10 | ≤ 10 | ≤ 10 | ≤ 10 | COc1cnc2[nH]cc(C(=O)c3c(F)ccc(NS(=O)(=O)c4ccccc4F)c3F)c2c1 [P-2009, N-[2,4-Difluoro-3-(5-methoxy-1H-pyrrolo[2,3-b]pyridine-3-carbonyl)-phenyl]-2-fluoro-benzenesulfonamide] |
| ≤ 10 | ≤ 10 | ≤ 10 | ≤ 10 | ≤ 10 | ≤ 10 | ≤ 10 | ≤ 10 | N#Cc1cnc2[nH]cc(C(=O)c3c(F)ccc(NS(=O)(=O)c4ccccc4F)c3F)c2c1 [P-2011, N-[3-(5-Cyano-1H-pyrrolo[2,3-b]pyridine-3-carbonyl)-2,4-difluoro-phenyl]-2-fluoro-benzenesulfonamide] |
| ≤ 10 | ≤ 10 | ≤ 10 | ≤ 10 | ≤ 10 | ≤ 10 | ≤ 10 | ≤ 10 | Cc1cnc2[nH]cc(C(=O)c3c(F)ccc(NS(=O)(=O)c4ccccc4F)c3F)c2c1 [P-2014, N-[2,4-Difluoro-3-(5-methyl-1H-pyrrolo[2,3-b]pyridine-3-carbonyl)-phenyl]-2-fluoro-benzenesulfonamide] |
| ≤ 10 | ≤ 10 | ≤ 10 | ≤ 10 | ≤ 10 | ≤ 10 | ≤ 10 | ≤ 10 | Cc1cnc2[nH]cc(C(=O)c3c(F)ccc(NS(=O)(=O)c4cccc(F)c4)c3F)c2c1 [P-2016, N-[2,4-Difluoro-3-(5-methyl-1H-pyrrolo[2,3-b]pyridine-3-carbonyl)-phenyl]-3-fluoro-benzenesulfonamide] |
| ≤ 10 | ≤ 10 | ≤ 10 | ≤ 10 | ≤ 10 | ≤ 10 | ≤ 10 | ≤ 10 | O=C(c1c(F)ccc(NS(=O)(=O)c2cccc(F)c2)c1F)c1c[nH]c2nccc(Cl)c12 [P-2019, N-[3-(4-Chloro-1H-pyrrolo[2,3-b]pyridine-3-carbonyl)-2,4-difluoro-phenyl]-3-fluoro-benzenesulfonamide] |
| ≤ 10 | ≤ 10 | ≤ 10 | ≤ 10 | ≤ 10 | ≤ 10 | ≤ 10 | ≤ 10 | N#Cc1ccnc2[nH]cc(C(=O)c3c(F)ccc(NS(=O)(=O)c4cc(F)ccc4F)c3F)c12 [P-2036, N-[3-(4-Cyano-1H-pyrrolo[2,3-b]pyridine-3-carbonyl)-2,4-difluoro-phenyl]-2,5-difluoro-benzenesulfonamide] |
| ≤ 10 | ≤ 10 | ≤ 10 | ≤ 10 | – | ≤ 10 | ≤ 10 | ≤ 10 | O=C(c1c(F)ccc(NS(=O)(=O)c2ccccn2)c1F)c1c[nH]c2nccc(Cl)c12 [P-2075, Pyridine-2-sulfonic acid [3-(4-chloro-1H-pyrrolo[2,3-b]pyridine-3-carbonyl)-2,4-difluoro-phenyl]-amide] |
| ≤ 10 | ≤ 10 | ≤ 10 | ≤ 10 | – | – | ≤ 10 | ≤ 10 | COc1ccnc2[nH]cc(C(=O)c3c(F)ccc(NS(=O)(=O)c4ccccn4)c3F)c12 [P-2076, Pyridine-2-sulfonic acid [2,4-difluoro-3-(4-methoxy-1H-pyrrolo[2,3-b]pyridine-3-carbonyl)-phenyl]-amide] |
| ≤ 10 | ≤ 10 | ≤ 10 | ≤ 10 | ≤ 10 | ≤ 10 | ≤ 10 | ≤ 10 | CCCS(=O)(=O)Nc1ccc(F)c(C(=O)c2c[nH]c3ncc(-c4ccc(N5CCCC5)nc4)cc23)c1F [P-2231, Propane-1-sulfonic acid {2,4-difluoro-3-[5-(6-pyrrolidin-1-yl-pyridin-3-yl)-1H-pyrrolo[2,3-b]pyridine-3-carbonyl]-phenyl}-amide] |
| ≤ 10 | ≤ 10 | ≤ 10 | ≤ 10 | ≤ 10 | ≤ 10 | ≤ 10 | ≤ 10 | CCS(=O)(=O)Nc1ccc(F)c(C(=O)c2c[nH]c3ncc(OC)cc23)c1F [P-2272, Ethanesulfonic acid [2,4-difluoro-3-(5-methoxy-1H-pyrrolo[2,3-b]pyridine-3-carbonyl)-phenyl]-amide] |
| ≤ 10 | ≤ 10 | ≤ 10 | ≤ 10 | – | ≤ 10 | ≤ 10 | ≤ 10 | CCS(=O)(=O)Nc1ccc(F)c(C(=O)c2c[nH]c3nccc(Cl)c23)c1F [P-2276, Ethanesulfonic acid [3-(4-chloro-1H-pyrrolo[2,3-b]pyridine-3-carbonyl)-2,4-difluoro-phenyl]-amide] |
| ≤ 10 | ≤ 10 | ≤ 10 | ≤ 10 | – | ≤ 10 | ≤ 10 | ≤ 10 | CCS(=O)(=O)Nc1ccc(F)c(C(=O)c2c[nH]c3ncc(C)cc23)c1F [P-2277, Ethanesulfonic acid [2,4-difluoro-3-(5-methyl-1H-pyrrolo[2,3-b]pyridine-3-carbonyl)-phenyl]-amide] |
| ≤ 10 | ≤ 10 | ≤ 10 | – | ≤ 10 | ≤ 10 | ≤ 10 | – | CCCC(C)S(=O)(=O)Nc1ccc(F)c(C(=O)c2c[nH]c3ncc(C)cc23)c1F (stereo not shown) [P-2315, Pentane-2-sulfonic acid [2,4-difluoro-3-(5-methyl-1H-pyrrolo[2,3-b]pyridine-3-carbonyl)-phenyl]-amide] |
| ≤ 10 | ≤ 10 | ≤ 10 | ≤ 10 | – | ≤ 10 | ≤ 10 | ≤ 10 | O=C(c1c(F)ccc(NS(=O)(=O)C(F)(F)F)c1F)c1c[nH]c2ncc(Cl)cc12 [P-2346, N-[3-(5-Chloro-1H-pyrrolo[2,3-b]pyridine-3-carbonyl)-2,4-difluoro-phenyl]-C,C,C-trifluoro-methanesulfonamide] |
| ≤ 10 | ≤ 10 | ≤ 10 | ≤ 10 | ≤ 10 | – | ≤ 10 | ≤ 10 | O=C(c1c(F)ccc(NS(=O)(=O)C2CCCCC2)c1F)c1c[nH]c2nccc(Cl)c12 [P-2367, Cyclohexanesulfonic acid [3-(4-chloro-1H-pyrrolo[2,3-b]pyridine-3-carbonyl)-2,4-difluoro-phenyl]-amide] |
| ≤ 10 | ≤ 10 | ≤ 10 | ≤ 10 | – | ≤ 10 | ≤ 10 | ≤ 10 | CCCS(=O)(=O)Nc1cccc(C(=O)c2c[nH]c3ncc(-c4cnc(N(C)C)nc4)cc23)c1F [P-2408, Propane-1-sulfonic acid {3-[5-(2-dimethylamino-pyrimidin-5-yl)-1H-pyrrolo[2,3-b]pyridine-3-carbonyl]-2-fluoro-phenyl}-amide] |
